Experiments:
[1] = test system: WI-38 cell line (normal embryonic lung tissue); assay type: cell-based
[2] = test system: P. falciparum strain Dd2 (chloroquine-resistant); experiment: P. falciparum in vitro growth inhibition assay; assay type: cell-based, Plasmodium falciparum; conditions: for antiplasmodial activity in words: highest concentration tested 25 μM

## COC(=O)CCC(=O)OC/C(C)=C/C(=O)OC[C@]1(O)[C@H]2C[C@H]2[C@]2(C)[C@@H]3C[C@@]4(OO)C5=C(/C(=C(\C)C(=O)OC)C(=O)[C@H](O)[C@@]5(C)[C@@H]5C[C@@H]54)[C@@]34OC(=O)C(CO)=C4C[C@@H]12 [Compound 4, Fortunilide D]
[1]; human, 24 h
  increase of toxicity toward mammalian cells compared with counterpart: 6 fold

## COC(=O)/C(C)=C1/C(=O)[C@H](O)[C@]2(C)C3=C(C[C@@H]4[C@]5(OC(=O)C6=C5C[C@H]5[C@](O)(COC(=O)/C=C(\C)COC(=O)CCC(=O)OC6)[C@H]6C[C@H]6[C@]45C)[C@H]31)[C@H]1C[C@H]12 [Compound 7, Fortunilide G]
[1]; human, 24 h
  decrease of mammalian cytotoxicity compared with counterpart: 5 fold

## COC(=O)/C(C)=C1\C(=O)[C@H](O)[C@]2(C)C3=C(C[C@@H]4[C@]5(OC(=O)C(C)=C5C[C@H]5[C@H](COC(C)=O)[C@H]6C[C@H]6[C@]45C)[C@H]31)[C@H]1C[C@H]12 [Compound 25, shizukaol E]
[2]
  antiplasmodial activity in words: micromolar range

## C/C=C(\C)C(=O)OC[C@]1(O)[C@H]2C[C@H]2[C@]2(C)[C@@H]3C[C@@]4(O)C5=C(/C(=C(\C)C(=O)OC)C(=O)[C@H](O)[C@@]5(C)[C@@H]5C[C@@H]54)[C@@]34OC(=O)C(COC(C)=O)=C4C[C@@H]12 [Compound 27, sarcandrolide E]
[2]
  antiplasmodial activity in words: inactive

## COC(=O)/C(C)=C1\C(=O)[C@H](O)[C@]2(C)C3=C(C[C@@H]4[C@]5(OC(=O)C6=C5C[C@H]5[C@](O)(COC(=O)/C(C)=C/COC(=O)[C@@H](O)CC(=O)OC6)[C@H]6C[C@H]6[C@]45C)[C@H]31)[C@H]1C[C@H]12 [Compound 29, shizukaol G]
[1]; human, 24 h
  increase of toxicity toward mammalian cells compared with counterpart: ~ 10 fold

## C=C1[C@@H]2C[C@@H]2[C@]2(C)[C@@H]3CC4=C5[C@H](/C(=C(\C)C(=O)OC)C(=O)[C@H](O)[C@@]5(C)[C@@H]5C[C@H]45)[C@@]34OC(=O)C(C)=C4C[C@@H]12 [Compound 32, shizukaol A]
[2]
  antiplasmodial activity in words: micromolar range

## shizukaol C [Compound 17]
[2]; read-out: P. falciparum IC50, Table 6
  IC50: 21 nM
[1]; read-out: WI-38 IC50, WI-38 cell line, 24 h incubation
  IC50: 770 nM
